# Experimental data published in PubChem BioAssay (NCI).
#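 Interpolation was linear, between the two tested concentrations surrounding the appropriate level; five concentrations were tested over 48 hours in 96-well plates. GI50 marks 50% less growth. TGI: total growth inhibition.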 Non-standard residues stand in square brackets, D forms with d. Residues, ends and D or L forms follow the SMILES beside them. *: point of attachment. hSer = N[CH](CCO)C(=O)O; Boc = CC(C)(C)OC(=O)*
# Assays:
# Test in all cases: DTP human tumour cell line panel, 48 h
# [1] = test system: MALME-3M melanoma
# [2] = test system: UACC-62 melanoma
# [3] = test system: M14 melanoma
# [4] = test system: SR leukemia
# [5] = test system: ACHN renal
# [6] = test system: HOP-62 NSCLC
# [7] = test system: SK-OV-3 ovarian
# [8] = test system: SK-MEL-28 melanoma
# [9] = test system: CAKI-1 renal
# [10] = test system: K-562 leukemia
# [11] = test system: SK-MEL-2 melanoma
# [12] = test system: SW-620 colon
# [13] = test system: NCI-H23 lung
# [14] = test system: NCI-H460 lung
# [15] = test system: COLO 205 colon
# [16] = test system: A549 NSCLC
# [17] = test system: MDA-MB-435
# [18] = test system: OVCAR-5 ovarian
# [19] = test system: HL-60(TB) leukemia
# [20] = test system: NCI/ADR-RES ovarian
# [21] = test system: MCF7 breast
# [22] = test system: SNB-75 CNS
# [23] = test system: 786-0 renal
# [24] = test system: SK-MEL-5 melanoma
# [25] = test system: MOLT-4 leukemia
# [26] = test system: IGROV1 ovarian
# [27] = test system: RXF 393 renal
# [28] = test system: CCRF-CEM leukemia
# [29] = test system: RPMI-8226 leukemia
# [30] = test system: OVCAR-4 ovarian
# [31] = test system: T-47D breast
# [32] = test system: U251 CNS
# [33] = test system: SF-268 CNS
# [34] = test system: MDA-MB-231 breast
# [35] = test system: A498 renal
# [36] = test system: NCI-H226 lung
# [37] = test system: SF-539 CNS
# [38] = test system: DU-145 prostate
# [39] = test system: HS 578T breast
# [40] = test system: LOX IMVI melanoma
# [41] = test system: HCT-15 colon
# [42] = test system: HCC-2998 colon
# [43] = test system: OVCAR-3 ovarian
# [44] = test system: KM12 colon
# [45] = test system: OVCAR-8 ovarian
# [46] = test system: NCI-H522 lung
# [47] = test system: HCT-116 colon
# [48] = test system: SN12C renal
# [49] = test system: HT29 colon
# [50] = test system: SF-295 CNS
# [51] = test system: PC-3 prostate
# [52] = test system: BT-549 breast
# [53] = test system: UO-31 renal
# [54] = test system: TK-10 renal
# [55] = test system: EKVX NSCLC
# [56] = test system: UACC-257 melanoma
# [57] = test system: HOP-92 NSCLC
# [58] = test system: SNB-19 CNS
smiles,measurement,setting,value
O=CC(O)C(O)C(O)C(O)COP(=O)(O)Cc1ccccc1 (stereo not given),TGI,[1],> 10 µM
same,TGI,[2],> 10 µM
same,TGI,[3],> 10 µM
same,TGI,[4],> 10 µM
same,TGI,[5],> 10 µM
same,TGI,[6],> 10 µM
same,TGI,[7],> 10 µM
same,TGI,[8],> 10 µM
same,TGI,[9],> 10 µM
same,TGI,[10],> 10 µM
same,TGI,[11],> 10 µM
same,TGI,[12],> 10 µM
same,TGI,[13],> 10 µM
same,TGI,[14],> 10 µM
same,TGI,[15],> 10 µM
same,TGI,[16],> 10 µM
same,TGI,[17],> 10 µM
same,TGI,[18],> 10 µM
same,TGI,[19],> 10 µM
same,TGI,[20],> 10 µM
same,TGI,[21],> 10 µM
same,TGI,[22],> 10 µM
same,TGI,[23],> 10 µM
same,TGI,[24],> 10 µM
same,TGI,[25],> 10 µM
same,TGI,[26],> 10 µM
same,TGI,[27],> 10 µM
same,TGI,[28],> 10 µM
same,TGI,[29],> 10 µM
same,TGI,[30],> 10 µM
same,TGI,[31],> 10 µM
same,TGI,[32],> 10 µM
same,TGI,[33],> 10 µM
O=C(Nc1ccc2ncnc(Nc3ccc(Oc4cccc(F)c4)c(Cl)c3)c2c1)c1ccc(CNCCO)cc1,GI50,[1],1.52 µM
same,TGI,[1],2.93 µM
same,GI50,[2],1.7 µM
same,TGI,[2],3.07 µM
same,GI50,[5],1.59 µM
same,TGI,[5],3.05 µM
same,GI50,[34],1.73 µM
same,TGI,[34],3.27 µM
same,GI50,[7],1.14 µM
same,TGI,[7],2.53 µM
same,GI50,[8],1.69 µM
same,TGI,[8],3.08 µM
same,GI50,[12],1.83 µM
same,TGI,[12],3.52 µM
same,GI50,[15],1.8 µM
same,TGI,[15],3.56 µM
same,GI50,[35],2.58 µM
same,TGI,[35],23.4 µM
same,GI50,[18],1.63 µM
same,TGI,[18],3.17 µM
same,GI50,[19],2.06 µM
same,TGI,[19],4.74 µM
same,GI50,[20],7.2 µM
same,TGI,[20],36.9 µM
same,GI50,[36],19.7 µM
same,TGI,[36],56.1 µM
same,GI50,[37],1.62 µM
same,TGI,[37],3.01 µM
same,GI50,[38],1.8 µM
same,TGI,[38],3.44 µM
same,GI50,[30],1.88 µM
same,TGI,[30],4.81 µM
same,GI50,[39],1.64 µM
same,TGI,[39],4.42 µM
COCCC(NC(=O)C(CC(C)C)NC(=O)OC(C)(C)C)C(=O)OC (stereo not drawn) (Boc-Leu-[hSer](Me)-OMe; configuration not given here),GI50,[3],48.6 mg/L
same,GI50,[4],31.2 mg/L
same,GI50,[40],65.1 mg/L
same,GI50,[10],63.1 mg/L
same,GI50,[41],64.9 mg/L
same,GI50,[14],70.1 mg/L
same,GI50,[42],50.1 mg/L
same,GI50,[43],78.4 mg/L
same,GI50,[44],89.9 mg/L
same,GI50,[45],88.3 mg/L
same,GI50,[19],37 mg/L
same,GI50,[21],59.7 mg/L
same,GI50,[46],31.3 mg/L
same,TGI,[46],80.1 mg/L
same,GI50,[25],26 mg/L
same,TGI,[25],70.2 mg/L
same,GI50,[47],91.6 mg/L
same,GI50,[28],17.8 mg/L
same,GI50,[30],70.2 mg/L
CC(C)CCN=C(N)c1ccc(N2CCN(c3ccc(C(N)=NCCC(C)C)cc3)CC2)cc1,GI50,[2],16.8 µM
same,TGI,[2],33.8 µM
same,GI50,[3],11.7 µM
same,TGI,[3],29.6 µM
same,GI50,[48],7.52 µM
same,TGI,[48],42.7 µM
same,GI50,[49],6.51 µM
same,TGI,[49],30.2 µM
same,GI50,[4],2.73 µM
same,TGI,[4],7.44 µM
same,GI50,[40],21.2 µM
same,TGI,[40],57.3 µM
same,GI50,[5],56.8 µM
same,TGI,[5],> 100 µM
same,GI50,[34],20.6 µM
same,TGI,[34],52.7 µM
same,GI50,[50],6.68 µM
same,TGI,[50],38.5 µM
same,GI50,[6],10.4 µM
same,TGI,[6],26.9 µM
same,GI50,[7],4.45 µM
same,TGI,[7],25.5 µM
same,GI50,[8],5.89 µM
same,TGI,[8],24.3 µM
same,GI50,[9],31.4 µM
same,TGI,[9],> 100 µM
same,GI50,[10],2.09 µM
same,TGI,[10],> 100 µM
same,GI50,[11],9.37 µM
same,TGI,[11],> 100 µM
same,GI50,[12],15.1 µM
same,TGI,[12],91.2 µM
same,GI50,[41],37.6 µM
same,TGI,[41],> 100 µM
same,GI50,[13],3.75 µM
same,TGI,[13],17.8 µM
same,GI50,[51],11.4 µM
same,TGI,[51],43.4 µM
same,GI50,[14],14.5 µM
same,TGI,[14],49.3 µM
same,GI50,[42],11.1 µM
same,TGI,[42],37.4 µM
same,GI50,[15],8.9 µM
same,TGI,[15],> 100 µM
same,GI50,[16],7.61 µM
same,TGI,[16],> 100 µM
same,GI50,[43],11.3 µM
same,TGI,[43],44.8 µM
same,GI50,[17],9.76 µM
same,TGI,[17],24.2 µM
same,GI50,[44],3.82 µM
same,TGI,[44],16.6 µM
same,GI50,[45],6.57 µM
same,TGI,[45],> 100 µM
same,GI50,[52],0.474 µM
same,TGI,[52],3.1 µM
same,GI50,[53],39.5 µM
same,TGI,[53],> 100 µM
same,GI50,[18],38.5 µM
same,TGI,[18],> 100 µM
same,GI50,[19],4.74 µM
same,TGI,[19],26.1 µM
same,GI50,[20],61.4 µM
same,TGI,[20],> 100 µM
same,GI50,[21],16.2 µM
same,TGI,[21],33.8 µM
same,GI50,[46],8.73 µM
same,TGI,[46],73.4 µM
same,GI50,[23],6.58 µM
same,TGI,[23],38 µM
same,GI50,[36],17.9 µM
same,TGI,[36],46.8 µM
same,GI50,[54],9.08 µM
same,TGI,[54],89.9 µM
same,GI50,[24],3.06 µM
same,TGI,[24],7.97 µM
same,GI50,[55],1 µM
same,TGI,[55],10.4 µM
same,GI50,[56],12.9 µM
same,TGI,[56],82.3 µM
same,GI50,[25],14.6 µM
same,TGI,[25],53.6 µM
same,GI50,[26],6.27 µM
same,TGI,[26],40.3 µM
same,GI50,[27],7.89 µM
same,TGI,[27],44.9 µM
same,GI50,[47],9.52 µM
same,TGI,[47],33.5 µM
same,GI50,[38],6.95 µM
same,TGI,[38],71.2 µM
same,GI50,[57],3.86 µM
same,TGI,[57],24.3 µM
same,GI50,[28],6.37 µM
same,TGI,[28],26.4 µM
same,GI50,[58],6.52 µM
same,TGI,[58],24.2 µM
same,GI50,[30],3.4 µM
same,TGI,[30],33.1 µM
same,GI50,[31],9.54 µM
same,TGI,[31],57.9 µM
same,GI50,[32],13.9 µM
same,TGI,[32],32.9 µM
same,GI50,[33],33.1 µM
same,TGI,[33],> 100 µM
